Twelve compounds from patent publication US6673938B1, “Substituted pyridine herbicides” (Syngenta Participations AG, priority 1998, dated 2004) can be followed below.

The subject of data set [1] is Monocotyledonous and dicotyledonous test plants. Nature of the data set: Post-emergence herbicidal action. Conditions: evaluated after approximately 18 days; for Post-emergence action, Ipomoea / Post-emergence action, Lolium / Post-emergence action, Setaria / Post-emergence action, Sinapis / Post-emergence action, Solanum / Post-emergence action, Stellaria: 2000 g/ha, sprayed in 4- to 6-leaf stage, nine-step scale; for Post-emergence action: Abutilon (score, nine-step scale) / Post-emergence action: Chenop. (score, nine-step scale) / Post-emergence action: Digitaria (score, nine-step scale) / Post-emergence action: Echino. (score, nine-step scale) / Post-emergence action: Ipopur. (score, nine-step scale) / Post-emergence action: Panicum (score, nine-step scale) / Post-emergence action: Xanth. (score, nine-step scale): 250 g/ha, sprayed at 4- to 6-leaf stage. Type of data set: in vivo. Put shortly:
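Greenhouse plants sprayed at the 4- to 6-leaf stage with test substance as wettable-powder suspension or emulsion-concentrate emulsion, 2 kg or 250 g a.i./ha in 500 l water/ha. Scored after about 18 days on a nine-step scale (1=complete damage, 9=no effect).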

For data set [2] the test system is unchanged. Nature of the data set: Herbicidal action before emergence of the plants (pre-emergence action). Type of data set: in vivo. The note with it: evaluated after 3 weeks, nine-step scale; for pre-emergence action, Cyperus / pre-emergence action, Ipomoea / pre-emergence action, Setaria / pre-emergence action, Sinapis / pre-emergence action, Solanum / pre-emergence action, Stellaria: 2000 g/ha; for Pre-emergence action, Abutilon / Pre-emergence action, Amaranthus / Pre-emergence action, Chenop. / Pre-emergence action, Digitaria / Pre-emergence action, Echino. / Pre-emergence action, Panicum: 250 g/ha. Put shortly: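 Sprayed onto soil immediately after sowing as WP suspension or EC emulsion at 2 kg or 250 g a.i./ha (500 l water/ha). Greenhouse growth for 3 weeks, then scored on a nine-step scale (1 = complete damage, 9 = no effect).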

For `Cc1nc(C(F)(F)F)ccc1C(=O)C1=C(Sc2ccccc2)CCCC1=O` [Compound A2-B1102, 2-(2-methyl-6-trifluoromethylpyridine-3-carbonyl)-3-phenylsulfanylcyclohex-2-enone], the melting point (as a rule, the temperature of the solid-liquid transition) was 124 to 125 °C.
Take `COCc1nc(C(F)(F)F)ccc1C(=O)C1=C([S+]([O-])c2ccccc2)CCCC1=O` (stereo not drawn) [Compound A8-B1103]: in data set [1], the “Post-emergence action, Ipomoea” value is 1; the “Post-emergence action, Lolium” value is reported as 4; the “Post-emergence action, Setaria” value was 1; the “Post-emergence action, Sinapis” value was 1. Besides, in data set [1], the “Post-emergence action, Solanum” value amounted to 1 and the “Post-emergence action, Stellaria” value was found to be 1. Moreover, in data set [2], the “pre-emergence action, Cyperus” value stood at 1; the “pre-emergence action, Ipomoea” value was 3; the “pre-emergence action, Setaria” value is 2; the “pre-emergence action, Sinapis” value came to 1. In data set [2], the “pre-emergence action, Solanum” value worked out at 1 and the “pre-emergence action, Stellaria” value worked out at 2.
Consider `COCCc1nc(C(F)(F)F)ccc1C(=O)C1=C(O)CCCC1=O` [Compound A9-B1], for which, in data set [1], the “Post-emergence action, Ipomoea” value is 2; the “Post-emergence action, Lolium” value was found to be 4; the “Post-emergence action, Setaria” value is 2; the “Post-emergence action, Sinapis” value was determined as 2. In addition, in data set [1], the “Post-emergence action, Solanum” value was 2 and the “Post-emergence action, Stellaria” value stood at 2. Moreover, in data set [2], the “pre-emergence action, Cyperus” value is given as 2; the “pre-emergence action, Ipomoea” value is 1; the “pre-emergence action, Setaria” value is listed as 2; the “pre-emergence action, Sinapis” value is reported as 1. In data set [2], the “pre-emergence action, Solanum” value is on record as 1 and the “pre-emergence action, Stellaria” value was 2.
As for `CC1(C)CCC(=O)C(C(=O)c2ccc(C(F)(F)F)nc2C(F)F)=C1O` [Compound A18-B24], in data set [1], the “Post-emergence action, Ipomoea” value was 1; the “Post-emergence action, Lolium” value stood at 2; the “Post-emergence action, Setaria” value was 2; the “Post-emergence action, Sinapis” value was determined as 1. In data set [1], the “Post-emergence action, Solanum” value is recorded as 2 and the “Post-emergence action, Stellaria” value is recorded as 2. For the same compound, in data set [2], the “pre-emergence action, Cyperus” value is recorded as 1; the “pre-emergence action, Ipomoea” value was determined as 1; the “pre-emergence action, Setaria” value came out at 1; the “pre-emergence action, Sinapis” value came to 1. For the same compound, in data set [2], the “pre-emergence action, Solanum” value is reported as 1 and the “pre-emergence action, Stellaria” value came to 2.
Consider `Cc1nc(C(F)(F)C(F)(F)F)ccc1C(=O)C1=C(O)CCCC1=O` [Compound A34-B1], for which, in data set [1], the “Post-emergence action, Ipomoea” value came to 1; the “Post-emergence action, Lolium” value came out at 2; the “Post-emergence action, Setaria” value worked out at 2; the “Post-emergence action, Sinapis” value came to 1. In data set [1], the “Post-emergence action, Solanum” value was 1 and the “Post-emergence action, Stellaria” value is 2. In data set [2], the “pre-emergence action, Cyperus” value turned out to be 1; the “pre-emergence action, Ipomoea” value was found to be 2; the “pre-emergence action, Setaria” value came out at 2; the “pre-emergence action, Sinapis” value came out at 2. For the same compound, in data set [2], the “pre-emergence action, Solanum” value was 2 and the “pre-emergence action, Stellaria” value turned out to be 3.
As for `Cc1nc(C(F)(F)C(F)(F)C(F)(F)F)ccc1C(=O)C1=C(O)C(C)(C)CCC1=O` [Compound A64-B24], in data set [1], the “Post-emergence action, Ipomoea” value worked out at 2; the “Post-emergence action, Lolium” value is 2; the “Post-emergence action, Setaria” value came out at 4; the “Post-emergence action, Sinapis” value was 1. In data set [1], the “Post-emergence action, Solanum” value is 2 and the “Post-emergence action, Stellaria” value came to 2. For the same compound, in data set [2], the “pre-emergence action, Cyperus” value is 4; the “pre-emergence action, Ipomoea” value stood at 4; the “pre-emergence action, Setaria” value amounted to 2; the “pre-emergence action, Sinapis” value is recorded as 2. Further, in data set [2], the “pre-emergence action, Solanum” value is 1 and the “pre-emergence action, Stellaria” value is 2.
As for `Cc1nc(C(F)(F)Cl)ccc1C(=O)C1=C(O)CCCC1=O` [Compound A94-B1], in data set [1], the “Post-emergence action, Ipomoea” value is listed as 1; the “Post-emergence action, Lolium” value is 2; the “Post-emergence action, Setaria” value was determined as 2; the “Post-emergence action, Sinapis” value stood at 1. Further, in data set [1], the “Post-emergence action, Solanum” value amounted to 1 and the “Post-emergence action, Stellaria” value is on record as 1. In addition, in data set [2], the “pre-emergence action, Cyperus” value is on record as 1; the “pre-emergence action, Ipomoea” value came to 2; the “pre-emergence action, Setaria” value is on record as 2; the “pre-emergence action, Sinapis” value worked out at 1. Besides, in data set [2], the “pre-emergence action, Solanum” value turned out to be 1 and the “pre-emergence action, Stellaria” value came to 2.
Take `Cc1cc(C(=O)C2=C(O)CCCC2=O)c(C)nc1C(F)(F)F` [Compound A184-B1]: in data set [1], the “Post-emergence action, Ipomoea” value worked out at 1; the “Post-emergence action, Lolium” value was 3; the “Post-emergence action, Setaria” value is listed as 2; the “Post-emergence action, Sinapis” value is reported as 1. In addition, in data set [1], the “Post-emergence action, Solanum” value amounted to 2 and the “Post-emergence action, Stellaria” value was determined as 2. In addition, in data set [2], the “pre-emergence action, Cyperus” value was found to be 2; the “pre-emergence action, Ipomoea” value was determined as 4; the “pre-emergence action, Setaria” value is 2; the “pre-emergence action, Sinapis” value worked out at 2. Besides, in data set [2], the “pre-emergence action, Solanum” value turned out to be 1 and the “pre-emergence action, Stellaria” value came to 2.
For the compound `Cc1cc(C(=O)C2=C(O)C(C)(C)CCC2=O)c(C)nc1C(F)(F)F` [Compound A184-B24], in data set [1], the “Post-emergence action, Ipomoea” value amounted to 1; the “Post-emergence action, Lolium” value was found to be 2; the “Post-emergence action, Setaria” value was found to be 2; the “Post-emergence action, Sinapis” value stood at 1. In data set [1], the “Post-emergence action, Solanum” value is 2 and the “Post-emergence action, Stellaria” value is listed as 2. In data set [2], the “pre-emergence action, Cyperus” value was 1; the “pre-emergence action, Ipomoea” value is 3; the “pre-emergence action, Setaria” value was 2; the “pre-emergence action, Sinapis” value amounted to 2. In data set [2], the “pre-emergence action, Solanum” value is reported as 1 and the “pre-emergence action, Stellaria” value is listed as 2.
Turning to `CCOC(=O)OCc1nc(C(F)(F)F)ccc1C(=O)C1=C(O)C(C)(C)C(=O)C(C)(C)C1=O` [Compound A1208-B354], in data set [1], the “Post-emergence action: Abutilon (score, nine-step scale)” value is recorded as 1; the “Post-emergence action: Chenop. (score, nine-step scale)” value is recorded as 2; the “Post-emergence action: Digitaria (score, nine-step scale)” value amounted to 4; the “Post-emergence action: Echino. (score, nine-step scale)” value was 2. Besides, in data set [1], the “Post-emergence action: Ipopur. (score, nine-step scale)” value is reported as 2; the “Post-emergence action: Panicum (score, nine-step scale)” value is on record as 3; the “Post-emergence action: Xanth. (score, nine-step scale)” value was 2. For the same compound, in data set [2], the “Pre-emergence action, Abutilon” value was determined as 1; the “Pre-emergence action, Amaranthus” value is on record as 1; the “Pre-emergence action, Chenop.” value is on record as 1; the “Pre-emergence action, Digitaria” value stood at 1. In data set [2], the “Pre-emergence action, Echino.” value was 1 and the “Pre-emergence action, Panicum” value is 1.
Turning to `Cc1c(C(=O)C2=C(O)C(C)(C)C(=O)C(C)(C)C2=O)ccc(C(F)(F)F)[n+]1[O-]` [Compound A1210-B354], in data set [1], the “Post-emergence action, Ipomoea” value was found to be 2; the “Post-emergence action, Lolium” value worked out at 2; the “Post-emergence action, Setaria” value came to 2; the “Post-emergence action, Sinapis” value worked out at 1. Also, in data set [1], the “Post-emergence action, Solanum” value is on record as 1 and the “Post-emergence action, Stellaria” value is recorded as 2. Besides, in data set [2], the “pre-emergence action, Cyperus” value is reported as 2; the “pre-emergence action, Ipomoea” value was 3; the “pre-emergence action, Setaria” value is recorded as 2; the “pre-emergence action, Sinapis” value was found to be 1. In data set [2], the “pre-emergence action, Solanum” value is given as 1 and the “pre-emergence action, Stellaria” value is on record as 2.
On to `Cc1c(C(=O)C2=C(Cl)C(C)(C)C(=O)C(C)(C)C2=O)ccc(C(F)(F)F)[n+]1[O-]` [Compound A1210-B1105, 5-Chloro-2,2,6,6-tetramethyl-4-(2-methyl-1-oxy-6-trifluoromethylpyridine-3-carbonyl)cyclohex-4-ene-1,3-dione], for which, in data set [1], the “Post-emergence action: Abutilon (score, nine-step scale)” value came out at 2; the “Post-emergence action: Chenop. (score, nine-step scale)” value is on record as 1; the “Post-emergence action: Digitaria (score, nine-step scale)” value is 2; the “Post-emergence action: Echino. (score, nine-step scale)” value worked out at 3. For the same compound, in data set [1], the “Post-emergence action: Ipopur. (score, nine-step scale)” value is recorded as 2; the “Post-emergence action: Panicum (score, nine-step scale)” value stood at 1; the “Post-emergence action: Xanth. (score, nine-step scale)” value is reported as 2. For the same compound, in data set [2], the “Pre-emergence action, Abutilon” value is listed as 1; the “Pre-emergence action, Amaranthus” value is listed as 4; the “Pre-emergence action, Chenop.” value is 1; the “Pre-emergence action, Digitaria” value is reported as 3. Moreover, in data set [2], the “Pre-emergence action, Echino.” value stood at 2 and the “Pre-emergence action, Panicum” value is listed as 2.
